In patent US8691864B2, “Agents useful for reducing amyloid precursor protein and treating dementia and methods of use thereof” (priority 2000, dated 2014):

Key:
[1] = system: SH-SY-5Y Cells; assay: MTS toxicity assay in SHSY5Y cells; format: cell-based, human
Protocol: (§1) An enzyme-linked immunosorbent assay was developed to detect secreted APP in SHSY5Y cells, a human neuroblastoma cell line. The purpose of the screen was to discover small molecules that inhibit APP protein synthesis in SHSY5Y cells. SHSY5Y cells were plated at 1×10^5 cells/well in […] of DMEM containing 0.5% heat inactivated FBS in 96 well tissue culture treated plates (Falcon no. 35 3072). 144 MES compounds were tested at final concentrations of […] in 0.1% DMSO. Compounds were added and the plates incubated for 16 hours at 37° C./5% CO2. Maxisorp plates (Nunc no. 437958) were coated overnight with […] capture antibody (Biosource 44-100) diluted in Ca^++ and Mg^++ free PBS. Biosource 44-100 is a mouse mAb that recognizes aa 1-100 of human APP. Plates were blocked for 30 minutes with 1 mg/mL BSA in Ca^++ and Mg^++ free PBS. Plates were washed 3× with wash buffer (Ca^++ and Mg^++ free PBS+0.01% Tween20). […] of supernatants and non-cultured medium controls were transferred from culture plates to ELISA plates. Culture plates were reserved for toxicity analysis. Supernatants were incubated for 4 hours at RT on a plate shaker. After supernatant incubation, plates were washed 3×. Primary antibody (Signet Clone 6E-10 biotin) was added at 0.3125 mg/mL and incubated overnight at 4° C. The recognition site of 6E-10 is aa 1-17 of Ab. For detection, a 1:3000 dilution of horseradish peroxidase conjugated streptavidin (Endogen no. N-100) was incubated for 30 minutes. Plates were washed 3×. Enzyme activity was assessed by incubation with […] TMB substrate solution (Moss no. TMB-US) for 20 minutes. The reaction was stopped by the addition of […] 0.18M sulfuric acid. Optical density was read at 450 nm on Wallac Victor2 plate reader. During the first incubation, toxicity was determined using MTS assay, Cell Titer96 AQ reagent (Promega no. G5430). The background values from the non-cultured medium control were subtracted from the sample values and secreted APP levels and toxicity were expressed as % vehicle control. Of the 144 MES compounds screened, 12 inhibited secreted APP as determined by ELISA. The results are depicted in FIGS. 13A-M.
(§2) Using the experimental procedure outlined above, APP secretion and toxicity studies were performed on several other non-carbamate compounds, and the results are shown in Tables 3 and 4. The compound structures are provided in Table 2 in the application, which are identified by their MES number.

[2] = system: secreted APP; assay: ELISA for secreted APP in SHSY5Y cells; format: cell-based, human; conditions: 16 hours
Protocol: as §1, §2

Compound	APP Toxicity SH-SY-5Y Cells (MTS assay) ([1]; Dose 2 uM)	APP Toxicity SH-SY-5Y Cells (MTS assay) ([1]; Dose 6 uM)	APP Toxicity SH-SY-5Y Cells (MTS assay) ([1]; Dose 20 uM)	APP Secretion by SH-SY-5Y Cells ([2]; Dose 2 uM)	APP Secretion by SH-SY-5Y Cells ([2]; Dose 6 uM)	APP Secretion by SH-SY-5Y Cells ([2]; Dose 20 uM)	APP Toxicity SH-SY-5Y Cells (MTS assay) ([1]; Dose 0.08 uM)	APP Toxicity SH-SY-5Y Cells (MTS assay) ([1]; Dose 0.25 uM)	APP Toxicity SH-SY-5Y Cells (MTS assay) ([1]; Dose 0.74 uM)	APP Secretion by SH-SY-5Y Cells ([2]; Dose 0.08 uM)	APP Secretion by SH-SY-5Y Cells ([2]; Dose 0.25 uM)	APP Secretion by SH-SY-5Y Cells ([2]; Dose 0.74 uM)
COc1ccc2c(c1)[C@@]1(C)CCN(C)C1N2Cc1ccccc1 (single isomer, unassigned) [MES 9203]	98.93 % vehicle control	99.17 % vehicle control	98.83 % vehicle control	103.1 % vehicle control	103.9 % vehicle control	108.4 % vehicle control						
Cc1cc2c(cc1O)[C@]1(C)CCN(C)C1N2C (stereo partly drawn) [MES 9267]	97.98 % vehicle control	96.72 % vehicle control	15.52 % vehicle control	93.68 % vehicle control	68.64 % vehicle control	22.22 % vehicle control	101.5 % vehicle control	102 % vehicle control	101.9 % vehicle control	97.8 % vehicle control	97.43 % vehicle control	97.43 % vehicle control
COc1ccc2c(c1)c(CCN(C)C)cn2Cc1ccccc1 [MES 9191, N,N-Dimethyl-N^1-benzyl-5-methoxytryptamine]	99.18 % vehicle control	92.84 % vehicle control	91.1 % vehicle control	100.74 % vehicle control	65.3 % vehicle control	64.36 % vehicle control	104.5 % vehicle control	103.9 % vehicle control	103.7 % vehicle control	100.8 % vehicle control	101.6 % vehicle control	99.87 % vehicle control
COc1ccc2c(c1)C1(C)CCN(C)C1N2Cc1ccccc1 (stereo not drawn) [MES 9199]	100.5 % vehicle control	101.65 % vehicle control	101.9 % vehicle control	92.2 % vehicle control	93.9 % vehicle control	102.95 % vehicle control						
CN1CC[C@@]2(C)c3cc(O)ccc3N(Cc3ccccc3)C12 (stereo partly drawn) [MES 9206]	96 % vehicle control	91.85 % vehicle control	76.3 % vehicle control	88.2 % vehicle control	97.1 % vehicle control	96.4 % vehicle control						
COc1ccc2c(c1)[C@]1(C)CCN(Cc3ccccc3)C1N2C=O (stereo partly drawn) [MES 9277]	98.25 % vehicle control	98.3 % vehicle control	91.1 % vehicle control	98.25 % vehicle control	109 % vehicle control	113.6 % vehicle control						
COc1ccc2c(c1)[C@]1(C)CCNC1N2 (stereo partly drawn) [MES 9243]	99.1 % vehicle control	98.4 % vehicle control	99 % vehicle control	88.95 % vehicle control	95.25 % vehicle control	100.55 % vehicle control						
CN1CC[C@]2(C)c3cc(O)ccc3N(C)C12 (stereo partly drawn) [MES 9230]	100.8 % vehicle control	86.13 % vehicle control	13.83 % vehicle control	101.25 % vehicle control	88.8 % vehicle control	4.4 % vehicle control						
